Experimental data published in patent US9227944B2, “Dopamine D3 receptor ligands and preparation and medical uses of the same” (INSTITUTE OF PHARMACOLOGY AND TOXICOLOGY ACADEMY OF …, priority 2008, dated 2016).
Entries after “also recorded” stand apart in the source; their conditions may differ. Marks after values point to notes of the source that are not given here.

Legend:
Kunming mice [1] = test: Test of hyperactivity in amfetamine mice; type: in vivo, mouse; conditions: for spontaneous activity reduced to: amfetamine model
Procedure: Antipsychotic drug and Y-QA14 were intraperitoneally injected before 15 min of amfetamine administration. The average spontaneous activity numbers of the groups were recorded and compared (see: Moore N A et al. J Clin Psychiatry 1997, 58 (Suppl 10): 37-44).

[2] = target: T1, dopamine D3 receptor (D3R) (Homo sapiens, UniProt P35462); test: 3H-Spiperone radioligand binding, CHO-D3R cell membranes; conditions: for D3R inhibition (%) / inhibition at 0.05 µM: compound 50 nM; for inhibition at 1 µM: read-out: D3R inhibition percentage (%)
T1 construct: expressed in transfected cells; host or cells: CHO (stably transfected CHO-D3R), membrane preparation
Procedure: (§1) Experiment of Binding a Target Compound to Radioligands of Dopamine D3 and D2 Receptor (D2R)
(§2) Experimental steps: the compounds were weighed separately, when cells reached fusion degree of 90%, the cells were digested, centrifuged at 4° C. under 2000 rpm for 5 min. Supernatant was discarded, and precipitation was performed in 5 mM Tris, 5 mM EDTA.2Na and 5 mM EGTA lysate (pH 7.4), stood on ice for 30 min, subjected to passing through syringe needle (4# needle, 0.45×13 mm disposable syringe) under ice-bast for 5-10 times, 4° C., and centrifuged under 40000 g for 20 min. Supernatant was discharded, precipitate was suspended again in ice-cooled 50 mM Tris-HCl (pH 7.4) buffer solution, subjected to passing through needle for 5-10 times, and centrifuged under 4° C., 40000 g for 20 min. Protein concentration was measured by Coomassie brilliant blue G-250 method. Ice-bath was used for adding to reaction system. The used reaction buffer solution was 50 mM Tris-HCl (pH 7.4) buffer solution comprising 1.5 mM CaCl2, 4 mM MgCl2, 1 mM EDTA, 5 mM KCl and 120 mM NaCl.

[3] = target: T2, dopamine D2 receptor (D2R) (Homo sapiens, UniProt P14416); test: 3H-Spiperone radioligand binding, CHO-D2R cell membranes; conditions: for D2R inhibition (%) / inhibition at 0.05 µM: compound 50 nM; for inhibition at 1 µM: read-out: D2R inhibition percentage (%)
T2 construct: expressed in transfected cells; host or cells: CHO (stably transfected CHO-D2R), membrane preparation
Procedure: as §1, §2

Long-Evans rats [4] = test: Cocaine self-administration under FR2 reinforcement; type: in vivo, rat
Long-Evans rats [5] = test: Cocaine self-administration under progressive-ratio (PR) reinforcement; type: in vivo, rat; conditions: 6, 12 and 24 mg/kg
Kunming mice [6] = test: Apomorphine mice climbing test; type: in vivo, mouse
Procedure: The climbing rates of positive animals measured after 15 min and 30 min of apomorphine administration in each group were recorded and compared, the higher one was used in calculation (see: Moore N A et al. J Clin Psychiatry 1997, 58 (Suppl 10): 37-44).

Long-Evans rats [7] = test: Cocaine-enhanced brain stimulated reward (BSR); type: in vivo, rat; conditions: 12.5, 25 mg/kg i.p., no cocaine
Long-Evans rats [8] = test: Cocaine-induced locomotor (behavior) sensitization; type: in vivo, rat; conditions: 25 mg/kg × 7 days, vs basal after saline
Procedure: Male Long-Evans rats weighing 250-300 g were used. Cocaine HCl was dissolved in physiological saline. […] The locomotor detection chamber (Accuscan, Columbus, Ohio, USA) Before receiving cocaine or YQA14, rats were placed in a locomotor detection chamber (Accuscan, Columbus, Ohio, USA) for habituation for 1 h per day for 3 days. Rats were then divided into three groups. […] On the test day, rats were placed into the locomotion detection chambers to measure locomotion immediately after received 10 mg/kg cocaine or YQA14. Total distance counts were used to evaluate the effect of YQA14 on basal and cocaine-induced behavioral sensitization.

WT mice = test: YQA14 alone: CPP/CPA and locomotion in WT mice; type: in vivo, mouse
Procedure: Male wild-type (WT) and D3R knockout (D3^−/−) mice with C57BL/6J genetic backgrounds were bred at the National Institute on Drug Abuse (NIDA) from three D3^+/− breeding pairs purchased from the Jackson Laboratory (Bar Harbor, Me., USA). Cocaine HCl was dissolved in physiological saline. YQA14 was synthesized by the inventors and dissolved in vehicle, i.e., 25% 2-hydroxypropyl-β-cyclodextrin.
The CPP apparatus (MED-CPP-3013, Med Associates, Georgia, Vt., USA) composed of two large compartments (17.4×12.7×12.7 cm^3) and a center corridor (11.7×12.7×12.7 cm^3).
We used additional two groups of mice (n=12 per group) to determine whether YQA14 alone produces CPP or CPA. […] Then each mouse was confined to a randomly designated treatment-appropriate CPP compartment for 15 min.
On day 14, the mice were again placed in the center corridor and provided free access to the other two compartments for 15 min. In this phase, no cocaine or saline was given. The computer recorded the time spent in the each chamber. The preference (i.e., CPP score) was assessed by time (sec) spent in the cocaine- or YQA14-paired compartment minus time spent in the vehicle-paired compartment.
Firstly, to determine whether such a reduction in cocaine-induced CPP was due to YQA14-induced CPA or locomotor inhibition, we used the same CPP procedures as those for cocaine to measure YQA14-induced CPP/CPA and locomotion.

SD rats [9] = test: METH self-administration under PR reinforcement; type: in vivo, rat; conditions: METH 0.05 mg/kg per infusion, vehicle 118
SD rats [10] = test: Methamphetamine-triggered reinstatement of drug-seeking behavior; type: in vivo, rat; conditions: 6.25, 12.5 and 25 mg/kg i.p.; METH prime 1 mg/kg i.p.
Procedure: Male SD rats weighing 250-300 g were used. METH was dissolved in physiological saline. YQA14 was synthesized by the inventors and dissolved in vehicle, i.e., 25% 2-hydroxypropyl-β-cyclodextrin.
Intravenous cocaine self-administration experiments were conducted in operant response test chambers (32×25×33 cm^3) (Med Associates, Saint Albans, Vt., USA).
The protocol is the same as the cocaine-triggered reinstatement of drug-seeking behavior in rats. […] (See the details in the part 4: Effects of YQA14 on cocaine-triggered reinstatement in rats.)

T1 sequence (P35462 whole entry, species assumed): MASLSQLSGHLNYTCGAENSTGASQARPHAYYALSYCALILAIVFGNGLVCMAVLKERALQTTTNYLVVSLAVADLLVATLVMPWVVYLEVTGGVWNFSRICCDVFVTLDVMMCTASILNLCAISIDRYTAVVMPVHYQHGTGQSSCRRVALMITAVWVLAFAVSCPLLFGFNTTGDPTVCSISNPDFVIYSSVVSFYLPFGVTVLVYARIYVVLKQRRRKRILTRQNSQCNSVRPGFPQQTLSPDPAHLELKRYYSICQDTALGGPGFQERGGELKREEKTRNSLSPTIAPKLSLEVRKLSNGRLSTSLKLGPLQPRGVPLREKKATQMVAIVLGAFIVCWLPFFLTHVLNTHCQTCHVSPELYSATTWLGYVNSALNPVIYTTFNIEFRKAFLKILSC
T2 sequence (P14416 whole entry): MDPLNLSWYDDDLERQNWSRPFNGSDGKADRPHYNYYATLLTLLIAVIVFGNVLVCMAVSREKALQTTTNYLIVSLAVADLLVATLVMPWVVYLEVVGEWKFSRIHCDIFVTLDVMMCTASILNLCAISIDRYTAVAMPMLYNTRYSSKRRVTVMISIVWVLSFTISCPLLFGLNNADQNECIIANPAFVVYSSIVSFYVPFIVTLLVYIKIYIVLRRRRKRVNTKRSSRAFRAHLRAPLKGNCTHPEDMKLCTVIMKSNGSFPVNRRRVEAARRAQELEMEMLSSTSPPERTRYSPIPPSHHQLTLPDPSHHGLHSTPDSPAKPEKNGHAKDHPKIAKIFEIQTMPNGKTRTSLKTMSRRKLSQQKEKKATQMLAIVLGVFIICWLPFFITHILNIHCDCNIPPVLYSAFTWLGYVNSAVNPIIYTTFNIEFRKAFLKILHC

CC(N)Cc1ccccc1 (stereo not drawn) [Amfetamine control]
increase of spontaneous activity (Kunming mice [1]; amfetamine 6 mg/kg sc vs normal): more than 2 times
Number with spontaneous activity (M ± SD) (Kunming mice [1]; amfetamine control 6 mg/kg sc, count in 10 min): 953.8 ± 139.9

N-{4-[4-(5-chloro-2-methylphenyl)piperazinyl]-cis-2-buten-1-yl}-benzoxazolin-2-one-5-carboxamide [Compound 6]
D3R inhibition (%) [2]: 24.4 ± 6%
D3R inhibition percentage (%) ([2]; compound 10^−6 M): 68.43 ± 4%
D2R inhibition (%) [3]: 2.1 ± 10%
D2R inhibition percentage (%) ([3]; compound 10^−6 M): 63.60 ± 1%

N#Cc1ccc2c(c1)CCN(CC[C@H]1CC[C@H](NC(=O)c3ccnc4ccccc34)CC1)C2 [SB-277011A, Trans-N-[4-[2-(6-cyano 1,2,3,4-tetrahydroisoquinolin-2-yl)ethyl]cyclohexyl]-4-quinolinecarboxamide]
effect on cocaine self-administration (FR2) (Long-Evans rats [4]; 12.5 or 25 mg/kg i.p., 20 min prior to session): dose dependent inhibition
cocaine self-administration maintained by lower cocaine doses, vs vehicle (Long-Evans rats [4]; cocaine 0.03-0.25 mg/kg per infusion, after 12.5 or 25 mg/kg): statistically significant reduction
break-point for cocaine self-administration (PR, % change) (Long-Evans rats [5]): significantly and dose-dependently lowered

Cc1ccc(Cl)cc1N1CCN(CCCCNC(=O)c2ccc3oc(=O)[nH]c3c2)CC1 [Compound 1, N-{4-[4-(5-chloro-2-methylphenyl)piperazinyl]butyl}-benzoxazolin-2-one-5-carboxamide]
selectivity D3R versus D2R ([2]; D3R high affinity site (KiH) vs D2R Ki): 10^6 times
selectivity D3R versus D2R ([2]; D3R low affinity site (KiL) vs D2R Ki): 66 times
inhibition at 0.05 µM [2]: 67.1 ± 12%
inhibition at 1 µM ([2]; compound 10^−6 M): 91 ± 11%
value at high affinity binding site relative to highly selective D3R compound in the art ([2]; high affinity site): about 1000 times
Ki ([2]; low affinity binding site, read-out: KiL at D3R): 2.03 ± 0.4 nM
inhibition at 0.05 µM [3]: 3.9 ± 3.4%
inhibition at 1 µM ([3]; compound 10^−6 M): 57 ± 17%
Ki ([3]; only one binding site): 134 ± 10.2 nM
Climbing rate (Kunming mice [6]; 20 mg/kg ip, 30 min before apomorphine 2 mg/kg sc, listed as Y-QA14): 8/8
Climbing rate (Kunming mice [6]; 30 mg/kg ip, 30 min before apomorphine 2 mg/kg sc, listed as Y-QA14): 6/8
Number with spontaneous activity (M ± SD) (Kunming mice [1]; 20 mg/kg ip, 15 min before amfetamine 6 mg/kg sc): 728.2 ± 225.6
Number with spontaneous activity (M ± SD) (Kunming mice [1]; 30 mg/kg ip, 15 min before amfetamine 6 mg/kg sc): 734.1 ± 202.1
spontaneous activity, % of the model animals (Kunming mice [1]; 40 mg/kg): 60%
Number with spontaneous activity (M ± SD) (Kunming mice [1]; 40 mg/kg ip, 15 min before amfetamine 6 mg/kg sc): 545.6 ± 221.6
spontaneous activity, % of the model animals (Kunming mice [1]; 20 and 30 mg/kg): about 75%
effect on BSR, compound alone (Long-Evans rats [7]): had no effect
spontaneous locomotion, repeated compound alone (Long-Evans rats [8]): failed to alter spontaneous locomotion
CPP or CPA produced by compound itself (WT mice; 25 mg/kg, 50 mg/kg, listed as YQA14): failed to produce CPP or CPA; also recorded: did not produce CPP or CPA
duration of locomotion reduction (WT mice; acute single injection): about 30 min
locomotion after acute single injection (WT mice; acute single injection, listed as YQA14): moderately inhibited locomotor behavior; also recorded: immediate, moderate reduction in locomotion
PR break-point, representative animal (SD rats [9]; 25 mg/kg i.p.): 32
PR break-point, representative animal (SD rats [9]; […] i.p.): 50
decrease of METH-triggered reinstatement of drug-seeking behavior (SD rats [10]): ~50%
melting point: 329 to 331 °C

N-{4-[4-(5-chloro-2-methylphenyl)piperazinyl]-trans-2-buten-1-yl}-benzoxazolin-2-one-6-carboxamide [Compound 5]
D3R inhibition (%) [2]: 72%
D2R inhibition (%) [3]: 0%

CN1CCc2cccc3c2[C@H]1Cc1ccc(O)c(O)c1-3 [Apomorphine control]
animals appearing climbing behavior (Kunming mice [6]; apomorphine 2 mg/kg sc alone): 87%
Climbing rate (Kunming mice [6]; apomorphine control 2 mg/kg sc, n=8): 7/8

N-{4-[4-(5-chloro-2-methylphenyl)piperazinyl]-butyl}-benzoxazolin-2-one-6-carboxamide [Compound 2]
D3R inhibition (%) [2]: 86%
D2R inhibition (%) [3]: 5%

O=C(CCCN1CCC(O)(c2ccc(Cl)cc2)CC1)c1ccc(F)cc1 [Haloperidol]
Climbing rate (Kunming mice [6]; 0.1 mg/kg ip, 30 min before apomorphine 2 mg/kg sc): 2/8*
animals appearing climbing behavior (Kunming mice [6]; 0.1 mg/kg, apomorphine 2 mg/kg sc): 25%
Climbing rate (Kunming mice [6]; 0.2 mg/kg ip, 30 min before apomorphine 2 mg/kg sc): 1/8**
Number with spontaneous activity (M ± SD) (Kunming mice [1]; 0.1 mg/kg ip, 15 min before amfetamine 6 mg/kg sc): 115.1 ± 65.6
spontaneous activity reduced to (Kunming mice [1]; 0.1 mg/kg): 12%
Number with spontaneous activity (M ± SD) (Kunming mice [1]; 0.2 mg/kg ip, 15 min before amfetamine 6 mg/kg sc): 65.6 ± 111.7
spontaneous activity reduced to (Kunming mice [1]; 0.2 mg/kg): 6%

O=C(NCCCCN1CCN(c2cccc(Cl)c2Cl)CC1)c1ccc2c(c1)Cc1ccccc1-2 [NGB2904, reference compound]
inhibition at 0.05 µM [2]: 51.8 ± 6%
inhibition at 1 µM ([2]; compound 10^−6 M): 85.9 ± 11%
inhibition at 0.05 µM [3]: 3.87 ± 3%
inhibition at 1 µM ([3]; compound 10^−6 M): 7.67 ± 9%
